Source: US5292734A, “Angiotensin II receptor blocking 2,3,6 substituted quinazolinones” (American Cyanamid Company, priority 1993, dated 1994)
“And” between values parts separate entries of the source, which are not always exact repeats. Equal values may be shown once.

System: Angiotensin II (AII) vasopressor response
Assay: AII challenge: vasopressor response of angiotensin II in conscious SHR
Format: in vivo, rat (Conscious Male Okamoto-Aoki SHR)
Details: single rat, SHR
Source text: By administering a compound of this invention to a rat, and then challenging with angiotensin II, a blockage of the vasopressor response is realized.
Conscious Male Okamoto-Aoki SHR, 16-20 weeks old, weighing approximately 330 g are purchased from Charles River Labs (Wilmington, Mass.). Conscious rats are restrained in a supine position with elastic tape. The area at the base of the tail is locally anesthetized by subcutaneous infiltration with 2% procaine. The ventral caudal artery and vein are isolated, and a cannula made of polyethylene (PE) 10-20 tubing (fused together by heat) is passed into the lower abdominal aorta and vena cava, respectively. The cannula is secured, heparinized (1,000 I.U./ml), sealed and the wound is closed. The animals are placed in plastic restraining cages in an upright position. The cannula is attached to a Statham P23Db pressure transducer, and pulsatile blood pressure is recorded to 10-15 minutes with a Gould Brush recorder. (Chan et al., (Drug Development Res., 18:75-94, 1989).
Angiotensin II (human sequence, Sigma Chem. Co., St. Louis, Mo.) of 0.05 and 0.1 ug/kg i.v. is injected into all rats (predosing response). Then a test compound, vehicle or a known angiotensin II antagonist is administered i.v., i.p. or orally to each set of rats. The two doses of angiotensin II are given to each rat again at 30, 60, 90, 120, 180, 240 and 300 minutes post dosing the compound or vehicle. The vasopressor response of angiotensin II is measured for the increase in systolic blood pressure in mmhg. The percentage of antagonism or blockade of the vasopressor response of angiotensin II by a compound is calculated using the vasopressor response (increase in systolic blood pressure) of angiotensin II of each rat predosing the compound as 100%. A compound is considered active if at 30 mg/kg i.v. it antagonized at least 50% of the response.

[1] = 1 mg/kg I.V., AII 0.1 mcg/kg IV, 30 min post dose, 1 mg/kg
[2] = 1 mg/kg I.V., AII 0.1 mcg/kg IV, 60 min post dose, 1 mg/kg
[3] = 1 mg/kg I.V., AII 0.1 mcg/kg IV, 90 min post dose, 1 mg/kg
[4] = 1 mg/kg I.V., AII 0.1 mcg/kg IV, 120 min post dose, 1 mg/kg
[5] = 1 mg/kg I.V., AII 0.1 mcg/kg IV, 180 min post dose, 1 mg/kg
[6] = 1 mg/kg I.V., AII 0.1 mcg/kg IV, 240 min post dose, 1 mg/kg
[7] = 2 mg/kg P.O., AII 0.05 mcg/kg IV, 30 min post dose, 2 mg/kg
[8] = 2 mg/kg P.O., AII 0.05 mcg/kg IV, 90 min post dose, 2 mg/kg
[9] = 2 mg/kg P.O., AII 0.05 mcg/kg IV, 120 min post dose, 2 mg/kg
[10] = 2 mg/kg P.O., AII 0.05 mcg/kg IV, 180 min post dose, 2 mg/kg
[11] = 2 mg/kg P.O., AII 0.1 mcg/kg IV, 60 min post dose, 2 mg/kg
[12] = 2 mg/kg P.O., AII 0.1 mcg/kg IV, 120 min post dose, 2 mg/kg
[13] = 2 mg/kg P.O., AII 0.1 mcg/kg IV, 180 min post dose, 2 mg/kg

SMILES: CCCCc1nc2ccc(C(C)(O)CC3CCCN3)cc2c(=O)n1Cc1ccc(-c2ccccc2-c2nnn[nH]2)cc1 (stereo not drawn) [Example 79, CIS-2-Butyl-6-[1-hydroxy-1-methyl-2-(2-pyrrolidinyl)ethyl]-3-[[21-(1H-tetrazol-5-yl)[1,1'-biphenyl]-4-yl]methyl]-4(3H)-quinazolinone]
- Change [1]: 15 mmhg and 7 mmhg
- Response After AII [1]: 205 mmhg
- Change [2]: 19 mmhg and 15 mmhg
- Response After AII [2]: 214 mmhg and 210 mmhg
- Response After AII (1 mg/kg I.V., AII 0.1 mcg/kg IV, 90 min post dose): 220 mmhg
- Change [3]: 25 mmhg and 15 mmhg
- Response After AII [3]: 215 mmhg
- Change [4]: 30 mmhg and 25 mmhg
- Response After AII [4]: 230 mmhg and 220 mmhg
- Response After AII (1 mg/kg I.V., AII 0.1 mcg/kg IV, 180 min post dose): 220 mmhg
- Change [5]: 30 mmhg and 15 mmhg
- Response After AII [5]: 225 mmhg
- Change [6]: 33 mmhg and 35 mmhg
- Response After AII [6]: 238 mmhg and 240 mmhg
- Control Before AII (1 mg/kg I.V., before AII 0.05 mcg/kg IV, 30 min post dose): 200 mmhg
- Control Before AII (1 mg/kg I.V., before AII 0.05 mcg/kg IV, 60 min post dose, 1 mg/kg): 205 mmhg and 195 mmhg
- Control Before AII (1 mg/kg I.V., before AII 0.05 mcg/kg IV, 90 min post dose): 200 mmhg
- Control Before AII (1 mg/kg I.V., before AII 0.05 mcg/kg IV, 120 min post dose): 195 mmhg
- Control Before AII (1 mg/kg I.V., before AII 0.05 mcg/kg IV, 180 min post dose, 1 mg/kg): 205 mmhg and 195 mmhg
- Control Before AII (1 mg/kg I.V., before AII 0.05 mcg/kg IV, 240 min post dose, 1 mg/kg): 195 mmhg and 200 mmhg
- Control Before AII (1 mg/kg I.V., before AII 0.1 mcg/kg IV, 30 min post dose, 1 mg/kg): 190 mmhg and 195 mmhg
- Control Before AII (1 mg/kg I.V., before AII 0.1 mcg/kg IV, 60 min post dose): 195 mmhg
- Control Before AII (1 mg/kg I.V., before AII 0.1 mcg/kg IV, 90 min post dose, 1 mg/kg): 195 mmhg and 200 mmhg
- Control Before AII (1 mg/kg I.V., before AII 0.1 mcg/kg IV, 120 min post dose, 1 mg/kg): 200 mmhg and 195 mmhg
- Control Before AII (1 mg/kg I.V., before AII 0.1 mcg/kg IV, 180 min post dose, 1 mg/kg): 195 mmhg and 205 mmhg
- Control Before AII (1 mg/kg I.V., before AII 0.1 mcg/kg IV, 240 min post dose): 205 mmhg
- Change [7]: 30 mmhg and 25 mmhg
- Response After AII [7]: 260 mmhg and 275 mmhg
- Change (2 mg/kg P.O., AII 0.05 mcg/kg IV, 60 min post dose): 30 mmhg
- Response After AII (2 mg/kg P.O., AII 0.05 mcg/kg IV, 60 min post dose, 2 mg/kg): 265 mmhg and 270 mmhg
- Change [8]: 20 mmhg and 28 mmhg
- Response After AII [8]: 245 mmhg and 258 mmhg
- Change [9]: 17 mmhg and 30 mmhg
- Response After AII [9]: 242 mmhg and 265 mmhg
- Change [10]: 17 mmhg and 35 mmhg
- Response After AII [10]: 252 mmhg and 275 mmhg
- Change (2 mg/kg P.O., AII 0.1 mcg/kg IV, 30 min post dose): 30 mmhg
- Response After AII (2 mg/kg P.O., AII 0.1 mcg/kg IV, 30 min post dose, 2 mg/kg): 265 mmhg and 275 mmhg
- Change [11]: 35 mmhg and 40 mmhg
- Response After AII [11]: 260 mmhg and 280 mmhg
- Response After AII (2 mg/kg P.O., AII 0.1 mcg/kg IV, 90 min post dose): 270 mmhg
- Change (2 mg/kg P.O., AII 0.1 mcg/kg IV, 90 min post dose, 2 mg/kg): 45 mmhg and 40 mmhg
- Change [12]: 31 mmhg and 30 mmhg
- Response After AII [12]: 255 mmhg and 270 mmhg
- Change [13]: 32 mmhg and 45 mmhg
- Response After AII [13]: 262 mmhg and 280 mmhg
- Control Before AII (2 mg/kg P.O., before AII 0.05 mcg/kg IV, 30 min post dose): 250 mmhg
- Control Before AII (2 mg/kg P.O., before AII 0.05 mcg/kg IV, 30 min post dose, 2 mg/kg): 230 mmhg
- Control Before AII (2 mg/kg P.O., before AII 0.05 mcg/kg IV, 60 min post dose): 240 mmhg
- Control Before AII (2 mg/kg P.O., before AII 0.05 mcg/kg IV, 60 min post dose, 2 mg/kg): 235 mmhg
- Control Before AII (2 mg/kg P.O., before AII 0.05 mcg/kg IV, 90 min post dose, 2 mg/kg): 225 mmhg and 230 mmhg
- Control Before AII (2 mg/kg P.O., before AII 0.05 mcg/kg IV, 120 min post dose, 2 mg/kg): 225 mmhg and 235 mmhg
- Control Before AII (2 mg/kg P.O., before AII 0.05 mcg/kg IV, 180 min post dose): 240 mmhg
- Control Before AII (2 mg/kg P.O., before AII 0.05 mcg/kg IV, 180 min post dose, 2 mg/kg): 235 mmhg
- Control Before AII (2 mg/kg P.O., before AII 0.1 mcg/kg IV, 30 min post dose, 2 mg/kg): 235 mmhg and 245 mmhg
- Control Before AII (2 mg/kg P.O., before AII 0.1 mcg/kg IV, 60 min post dose): 240 mmhg
- Control Before AII (2 mg/kg P.O., before AII 0.1 mcg/kg IV, 60 min post dose, 2 mg/kg): 225 mmhg
- Control Before AII (2 mg/kg P.O., before AII 0.1 mcg/kg IV, 90 min post dose, 2 mg/kg): 225 mmhg and 230 mmhg
- Control Before AII (2 mg/kg P.O., before AII 0.1 mcg/kg IV, 120 min post dose): 240 mmhg
- Control Before AII (2 mg/kg P.O., before AII 0.1 mcg/kg IV, 120 min post dose, 2 mg/kg): 224 mmhg
- Control Before AII (2 mg/kg P.O., before AII 0.1 mcg/kg IV, 180 min post dose, 2 mg/kg): 230 mmhg and 235 mmhg
